Data on three compounds can be found in patent US20260022098A1, “BULLEYACONITINE A DERIVATIVE WITH ANALGESIC ACTIVITY, AND PREPARATION METHOD AND APPLICATION THEREOF” (priority 2023, published 2026).

Read-outs that look alike come from different tables or passages of the source.

The test system of one data set is RAW 264.7 cells. The data set is described as follows: MTT assay, viability of RAW 264.7 cells. Conditions: compound diluted to 30 mol/L (so in the source), 12 h. The class given is cell-based. Here is the method: (§1) The effect of the compound to be tested on viability of RAW 264.7 cells at a concentration of […] was assessed through MTT assay (Methylthiazolyldiphenyl-tetrazolium bromide assay), and the inhibition on NO release in the inflammatory response of LPS-induced RAW 264.7 cells at 30 µM was determined through Griess method. Specific methods were described as follows.
An MTT solution (5 mg/mL) was prepared with a PBS buffer, filter-sterilized through a 0.22 μm filter membrane, and stored protected from light at low temperature. Each compound was dissolved in DMSO to prepare a 50 mmol/L stock solution, and stored from light at low (frozen) temperature. The stock solution was diluted to 30 mol/L with DMEM (Dulbecco's modified Eagle's medium) containing 10% FBS (fetal bovine serum). RAW264.7 cells beyond third passage were added to a culture medium and gently pipetted to detach, forming a cell suspension. 10 μL of the cell suspension was applied onto a hemocytometer slide for counting, and cells were seeded into 96-well plates at a density of 6×10^3 cells per well with 100 μL of the cell suspension per well. After incubated at 37° C. with 5% CO2 for 24 h, supernatant was removed. A zero-adjustment group (CO group) received 100 μL of medium per well, the blank group (CK group) received 100 μL of DMSO (1/1000 dilution) per well, and the experimental groups received 100 μL of the test samples per well. After 12 h, supernatant was removed, and […] of MTT solution was added into each well at 120 μL per well. After incubated in COz at a constant temperature for 4 h, supernatant was removed, and DMSO was added into each well by 150 μL per well. The mixture was shaken at 50 r/min for 10 min and subjected to an absorbance test at 492 nm. Relative cell viability (x) was calculated through a formula as follows: relative cell viability (%)=(ODTest−ODCO)/(ODCK−ODCO)×100%.
Background: Tetrazolium assays rely on reduction of a dye to a coloured formazan, in cell work by metabolically active cells.

Data set [1] has as its system Kunming mice. Briefly: Analgesic activity by acetic acid-induced writhing method (writhing inhibition rate, ED50). It counts as in vivo. Conditions: mice, subcutaneous; for ED50: Probit regression; for inhibition in vivo at 0.05 mg/kg / inhibition in vivo at 0.5 mg/kg: read-out: Analgesia rate (%) ± SEM. The essentials:
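Kunming mice (22±2 g, 1:1 sex, 12 h fasted, 10/group) got compound s.c. (dissolved 1:1 molar with 0.1 mol/L HCl, diluted in saline); 0.7% acetic acid i.p. 15 min later, writhes counted over 15 min. Inhibition rate vs saline blank; ED50 by Probit regression over ≥5 doses.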

Data set [2] relates to Kunming mice. The data set is described as follows: Calculation of therapeutic index (TI = LD50/ED50). The class given is in vivo. Here is the method:
(3) Calculation of Therapeutic Index (TI)
The therapeutic index of each compound was calculated based on the median effective dose and the median lethal dose, which were specifically as follows: therapeutic index (TI)=median lethal dose (LD50)/median effective dose (ED50).

Data set [3] can be described thus: Acute toxicity / median lethal dose (LD50) determination, subcutaneous injection. The class given is in vivo, mice. To be noted: both sexes, Kunming, mouse, in vivo, sc; mice, subcutaneous, survival within 24 h, Probit regression; >X = no death or toxic symptoms at X mg/kg. Also on record: key to Acute toxicity: if death occurred, (+) represented as positive; if no death occurred, (−) represented as negative. In a few lines: (§2)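 Kunming mice (22±2 g, 1:1 male:female, fasted 12 h), 10 per group, given compound subcutaneously at 0.1 mL/10 g in saline after 1:1 molar dissolution in 0.1 mol/L HCl. At least 5 proportional dose groups set from a 20 mg/kg pilot; 24 h survival, LD50 by Probit regression.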

The test system of data set [4] is Kunming mice. The data set is described as above. The class given is in vivo. Also on record: key to Acute toxicity: if death occurred, (+) represented as positive; if no death occurred, (−) represented as negative. Conditions: for Acute toxicity: mice administered 20 mg/kg subcutaneously, presence of death within 24 h. In a few lines: as §2
For data set [5], the system named is LPS-induced RAW 264.7 cells. The data set is described as follows: Griess assay, inhibition of NO release in LPS-induced RAW 264.7 cells. It counts as cell-based. Conditions: Griess method, compound at 30 M (so in the source), 22 h. How it is done:
as §1
RAW264.7 cells beyond third passage were added to a culture medium and gently pipetted to detach, forming a cell suspension. 10 μL of the cell suspension was applied onto a hemocytometer slide for counting, and cells were seeded into a 96-well plate at a density of 3×10^4 cells per well with 100 μL of the cell suspension per well. After incubated at 37° C. with […] for 24 h, supernatant was removed. The blank group received 100 μL of DMSO (1/1000 dilution) per well, a LPS (lipopolysaccharide) group received 100 μL of DMSO (1/1000 dilution) per well, and the experimental groups received 100 μL of the test samples per well. The LPS group received 1 μg/ml of LPS by […] per well, and the experimental groups received […] of LPS by 3 μg per well. After 22 h, 50 μL of supernatant was transferred into another 96-well plate, added with Griess Reagent I in a NO assay kit by 50 μL per well, then added with Griess Reagent II by 50 μL per well, and subjected to an absorbance test at 562 nm. Nitric oxide (NO) concentration was calculated based on a standard curve, which was specifically as follows: NO inhibition rate (%)=(ODLPS−ODTest)/(ODLPS−ODBlank)×100).

Data set [6] relates to Kunming mice. To be noted: reported value used as preliminary screening concentration; cited from earlier work.
Setting [7] is: Mus musculus, sc, acetic acid-induced writhing, read-out: ED50.
The mark [8] stands for this setting: Mus musculus, sc, dosing concentration 0.05 mg/kg, acetic acid-induced writhing.
The mark [9] stands for this setting: Mus musculus, sc, dosing concentration 0.5 mg/kg, acetic acid-induced writhing.

On to `CCO[C@]12C[C@H](OC)[C@@]3(OC(=O)c4ccccc4F)CC(C1[C@H]3OC(=O)c1ccccc1F)[C@]13C4[C@@H](OC)C2[C@H]1N(CC)C[C@]4(COC)CC[C@@H]3OC` (stereo partly shown) [Compound 69], for which the RAW cell viability in the data set on RAW 264.7 cells worked out at 95.11 ± 5.66 ns %. Further, in the data set on Kunming mice [1] (setting [7]), the ED50 (commonly the dose at which the effect has come halfway, by size or by number of responders) is 0.106 mg/kg. Moreover, the inhibition in vivo at 0.05 mg/kg with Kunming mice [1] (setting [8]) amounted to 40.3 ± 0.7%. Further, in the data set on Kunming mice [1] (setting [9]), the inhibition in vivo at 0.5 mg/kg amounted to 60.6 ± 1.9%. Also, the TI with Kunming mice [2] is given as >943.4. The LD50 (usually the dose at which mortality reaches 50%) in data set [3] was > 100 mg/kg. For the same compound, the Acute toxicity entry in the data set with Kunming mice [4] is listed as “−”. In addition, in data set [5], the “Inflammatory NO inhibition rate” value is reported as 40 ± 3.46 %.
For `CCO[C@]12C[C@H](OC)[C@@]3(OC(=O)c4ccc(Cl)cc4)CC(C1[C@H]3OC(=O)c1ccc(OC)cc1)[C@]13C4[C@@H](OC)C2[C@H]1N(CC)C[C@]4(COC)CC[C@@H]3OC` (stereo partly shown) [Compound 83], the RAW cell viability with RAW 264.7 cells is 85.21 ± 7.83 ^ %. In addition, in the data set on Kunming mice [1] (setting [7]), the ED50 was 0.146 mg/kg. Also, in the data set on Kunming mice [1] (setting [8]), the inhibition in vivo at 0.05 mg/kg came to 47 ± 0.9%. The inhibition in vivo at 0.5 mg/kg in the data set with Kunming mice [1] (setting [9]) is 70.8 ± 1.2%. Further, the TI with Kunming mice [2] is listed as 524.9. In data set [3], the LD50 was determined as 76.6 mg/kg. Also, in the data set with Kunming mice [4], the Acute toxicity entry was “−”. Further, in data set [5], the “Inflammatory NO inhibition rate” value is listed as 50 ± 4.52 %.
For Bulleyaconitine A [reference compound], in the data set on Kunming mice [6], the “reported median effective dose (ED50)” value was 0.05 mg/kg. The RAW cell viability with RAW 264.7 cells was 85.80 ± 7.31 ^ %. In addition, the ED50 in the data set with Kunming mice [1] (acetic acid-induced writhing) was found to be 0.048 mg/kg. In addition, the “Analgesia rate (%) ± SEM” value in the data set on Kunming mice [1] (dosing concentration 0.05 mg/kg, acetic acid-induced writhing) was found to be 54.80 ± 1.8 %. Further, in the data set with Kunming mice [1] (dosing concentration 0.5 mg/kg), the “Analgesia rate: unable to test owing to significant toxicity or death in mice” value was “−^a”. In addition, the TI with Kunming mice [2] is on record as 19.2. In the data set on Kunming mice [4], the Acute toxicity entry is on record as “+”. Moreover, the LD50 in the data set on Kunming mice [4] (mice, subcutaneous, survival within 24 h, Probit regression, >X = no death or toxic symptoms at X mg/kg) is 0.92 mg/kg. Besides, the “Inflammatory NO inhibition rate” value in data set [5] is 13 ± 6.84 %.
